Measured values reported in patent US4162938A, “Antibiotic compound” (Bristol-Myers Company, priority 1978, dated 1979).
Like-named read-outs stand apart in the source and are kept apart here.

Experiments:
[1] = system: Staphylococcus aureus A-9537; assay: MIC, standard tube dilution procedure; type: cell-based
Procedure: (§1) The in vitro minimum inhibitory concentrations (MIC) of rudolphomycin were determined for a number of microorganisms using the standard tube dilution procedure.

[2] = system: Escherichia coli A-20341-1; assay: MIC, standard tube dilution procedure; type: cell-based
Procedure: as §1

[3] = system: Streptococcus faecalis A-20688; assay: MIC, standard tube dilution procedure; type: cell-based
Procedure: as §1

[4] = system: Enterobacter cloacae A-9659; assay: MIC, standard tube dilution procedure; type: cell-based
Procedure: as §1

[5] = system: Klebsiella pneumoniae A-15130; assay: MIC, standard tube dilution procedure; type: cell-based
Procedure: as §1

[6] = system: Serratia marcescens A-20019; assay: MIC, standard tube dilution procedure; type: cell-based
Procedure: as §1

[7] = system: Candida tropicalis A-15051; assay: MIC, standard tube dilution procedure; type: cell-based
Procedure: as §1

[8] = system: Pseudomonas aeruginosa A-9843A; assay: MIC, standard tube dilution procedure; type: cell-based
Procedure: as §1

[9] = system: Proteus vulgaris A-9716; assay: MIC, standard tube dilution procedure; type: cell-based
Procedure: as §1

[10] = system: Streptococcus pyogenes A-9604; assay: MIC, standard tube dilution procedure; type: cell-based
Procedure: as §1

[11] = system: Candida albicans A-9540; assay: MIC, standard tube dilution procedure; type: cell-based
Procedure: as §1

[12] = system: Streptococcus pneumoniae A-9585; assay: MIC, standard tube dilution procedure; type: cell-based
Procedure: as §1

[13] = system: Trichophyton mentagrophytes A-9870; assay: MIC, standard tube dilution procedure; type: cell-based
Procedure: as §1

[14] = system: Proteus mirabilis A-9900; assay: MIC, standard tube dilution procedure; type: cell-based
Procedure: as §1

[15] = system: Escherichia coli A-15119; assay: MIC, standard tube dilution procedure; type: cell-based
Procedure: as §1

[16] = system: Microsporum canis A-9872; assay: MIC, standard tube dilution procedure; type: cell-based
Procedure: as §1

[17] = system: Candida krusei A-15052; assay: MIC, standard tube dilution procedure; type: cell-based
Procedure: as §1

[18] = system: Staphylococcus aureus A-9606; assay: MIC, standard tube dilution procedure; type: cell-based
Procedure: as §1

[19] = system: Cryptococcus neoformans A-15053; assay: MIC, standard tube dilution procedure; type: cell-based
Procedure: as §1

[20] = system: L-1210 leukemia; type: in vivo, mouse (BDF1 female)
Procedure: The compound of the present invention was also tested against the transplantable mouse tumor L-1210 lymphatic leukemia which is responsive to anthracycline-type antitumor agents.
Tumor inoculum: 10^6 ascites cells implanted i.p.
Host: BDF1 .female. mice
Evaluation: MST = median survival time
Effect: % T/C = MST treated/MST control × 100
Criteria: T/C ≥ 125 considered significant antitumor effect.

[21] = Biological activity of chromatographic fractions of bohemic acid complex (test not specified); settings: Example 5, large scale LH-20
[22] = system: L1210 mouse leukemia; assay: Activity of chromatographic bands on L1210 mouse leukemia system; type: in vivo; settings: Example 4 bands
[23] = system: P388 mouse leukemia; assay: Activity of chromatographic bands on P388 mouse leukemia system; type: in vivo; settings: Example 4 bands
[24] = day 1 (1 inj.), 0.4 mg./kg./inj.
[25] = day 1 (1 inj.), 0.8 mg./kg./inj.
[26] = day 1 (1 inj.), 1.6 mg./kg./inj.
[27] = day 1 (1 inj.), 3.2 mg./kg./inj.
[28] = day 1 (1 inj.), 6.4 mg./kg./inj.
[29] = day 1 (1 inj.), 12.8 mg./kg./inj.
[30] = days 1, 4, 7 (3 inj.), 0.2 mg./kg./inj.
[31] = days 1, 4, 7 (3 inj.), 0.4 mg./kg./inj.
[32] = days 1, 4, 7 (3 inj.), 0.8 mg./kg./inj.
[33] = days 1, 4, 7 (3 inj.), 1.6 mg./kg./inj.
[34] = days 1, 4, 7 (3 inj.), 3.2 mg./kg./inj.
[35] = days 1, 4, 7 (3 inj.), 6.4 mg./kg./inj.
[36] = days 1→5 (5 inj.), 0.1 mg./kg./inj.
[37] = days 1→5 (5 inj.), 0.2 mg./kg./inj.
[38] = days 1→5 (5 inj.), 0.4 mg./kg./inj.
[39] = days 1→5 (5 inj.), 0.8 mg./kg./inj.
[40] = days 1→5 (5 inj.), 1.6 mg./kg./inj.
[41] = days 1→5 (5 inj.), 3.2 mg./kg./inj.
[42] = days 1→9 (9 inj.), 0.05 mg./kg./inj.
[43] = days 1→9 (9 inj.), 0.1 mg./kg./inj.
[44] = days 1→9 (9 inj.), 0.2 mg./kg./inj.
[45] = days 1→9 (9 inj.), 0.4 mg./kg./inj.
[46] = days 1→9 (9 inj.), 0.8 mg./kg./inj.
[47] = days 1→9 (9 inj.), 1.6 mg./kg./inj.

CC[C@@]1(O)C[C@H](O[C@H]2C[C@H](N(C)C)[C@H](O[C@H]3C[C@H](O)[C@H](O[C@@H]4O[C@@H](C)C(=O)C=C4N)[C@@H](C)O3)[C@@H](C)O2)c2c(cc3c(c2O)C(=O)c2c(O)ccc(O)c2C3=O)[C@H]1C(=O)OC [Rudolphomycin]
7.0 days: MST (median survival time) [20, 34]
0.5 µg/mL: MIC [10]
7.5 days: MST (median survival time) [20, 43] | MST (median survival time) [20, 47]
9.5 days: MST (median survival time) [20, 32]
114%: MST % T/C [20, 24] | MST % T/C [20, 25] | MST % T/C [20, 26] | MST % T/C [20, 30] | MST % T/C [20, 31] | MST % T/C [20, 36] | MST % T/C [20, 42]
100%: MST % T/C [20, 34]
8 µg/mL: MIC [18]
136%: MST % T/C [20, 32]
4 µg/mL: MIC [3]
129%: MST % T/C [20, 35] | MST % T/C [20, 37] | MST % T/C [20, 38] | MST % T/C [20, 40] | MST % T/C [20, 41] | MST % T/C [20, 44] | MST % T/C [20, 45] | MST % T/C [20, 46]
143%: MST % T/C [20, 27] | MST % T/C [20, 28] | MST % T/C [20, 29] | MST % T/C [20, 33] | MST % T/C [20, 39]
8.0 days: MST (median survival time) [20, 24] | MST (median survival time) [20, 25] | MST (median survival time) [20, 26] | MST (median survival time) [20, 30] | MST (median survival time) [20, 31] | MST (median survival time) [20, 36] | MST (median survival time) [20, 42]
> 63 µg/mL: MIC [2] | MIC [4] | MIC [5] | MIC [6] | MIC [8] | MIC [9] | MIC [14] | MIC [15]
9.0 days: MST (median survival time) [20, 35] | MST (median survival time) [20, 37] | MST (median survival time) [20, 38] | MST (median survival time) [20, 40] | MST (median survival time) [20, 41] | MST (median survival time) [20, 44] | MST (median survival time) [20, 45] | MST (median survival time) [20, 46]
0.25 µg/mL: MIC [12]
10.0 days: MST (median survival time) [20, 27] | MST (median survival time) [20, 28] | MST (median survival time) [20, 29] | MST (median survival time) [20, 33] | MST (median survival time) [20, 39]
> 125 µg/mL: MIC [7] | MIC [11] | MIC [13] | MIC [16] | MIC [17]
107%: MST % T/C [20, 43] | MST % T/C [20, 47]
63 µg/mL: MIC [19]
2 µg/mL: MIC [1]

CC[C@@]1(O)C[C@H](O[C@H]2C[C@H](N(C)C)[C@H](O[C@H]3C[C@H](O)[C@H](O)[C@H](C)O3)[C@H](C)O2)c2c(cc3c(c2O)C(=O)c2c(O)ccc(O)c2C3=O)[C@H]1C(=O)OC [musettamycin]
active: activity of chromatographic fraction [21]
highly active: activity on L1210 mouse leukemia [22] | activity on P388 mouse leukemia [23]
